Measurements as given in patent publication US4740499A, “Method of enhancing the bioactivity of atrial peptides” (Monsanto Company, priority 1986, dated 1988).
One block for each compound: values may come before it. Where a SMILES comes first, the peptide text is derived from it. Bridges are numbered along the chain shown (N, C = ends).

Tests used:
[1] = test system: rabbit kidney brush border membranes (RBBM); experiment: physchem; assay type: biochemical; conditions: for Effect of inhibitor on atrial peptide bioactivity during incubation with renal brush border membranes: nanomolar (low) concentrations of inhibitor
Protocol: (§1) The kelatorphan was prepared according to the method described for compound 13 by Fournie-Saluski et al., J. Med. Chem. 28, 1158-1169 (1985). The following procedure was performed at 4° C. Rabbit kidneys were obtained fresh and were perfused with buffer A (containing 5 mM Tris, pH 7.5, 0.25 M sucrose, 3 mM MgCl2 and 1 mM EDTA) to remove the blood. (EDTA=ethylenediaminetetraacetic acid.) The kidneys were minced, homogenized in 5 volumes of ice-cold buffer A with a Brinkmann Polytron homogenizer and filtered through two layers of cheesecloth. The filtrate was centrifuged at 5,000×g for 20 min, the pellet was discarded and the supernatant was centrifuged at 15,000×g for 20 min. The supernatant was retained and then centrifuged at 100,000×g for 90 min. The pellet was resuspended in 50 mM Tris, pH 7.5, and the suspension was centrifuged at 100,000×g for 90 min. The washed pellet was resuspended in 50 mM Tris, pH 7.5, to give a final protein concentration of 4 mg/ml using the protein assay of Bradford, Anal. Biochem. 72, 248-254 (1976). The membrane preparation was assayed for aminopeptidase and alkaline phosphatase activities which are the marker enzymes for the kidney brush border. See Inui et al., Biochim. Biophys. Acta 647, 150-154 (1981). The final membrane preparation was enriched 8-fold in alkaline phosphatase activity, and 11-fold in aminopeptidase activity, compared to the homogenate. Renal brush border membranes (10-20 μg) were preincubated for 15 min at 25° C. in a solution containing the inhibitor and 50 mM Tris, pH 7.5. […] Incubations were for 60 min at 25° C. and were terminated by removing the membranes by filtration using Gelman GA-6 filters. The filtrates were immediately frozen on dry ice and were stable for 1 week when stored at -80° C. Samples containing the peptide degradation products were resolved by C18 reversed phase high pressure liquid chromatography (HPLC). The frozen samples were thawed immediately before injection onto a Vydac C18 column (4.6 mm I.D.×25 cm; 5 micron/300 Å) equilibrated with water containing 0.05% trifluoracetic acid (TFA). Peptide fragments and starting material were separated on a linear gradient of 0-35% acetonitrile also containing 0.05% TFA. Both the gradient and the flow rate (1 ml/min) were maintained by a Waters HPLC system consisting of two Model 510 pumps connected to an Automated Gradient Controller. Column effluent was monitored at 220 nm by a Waters Model 481 spectrophotometer, and the amount of atrial peptide material and peptide fragments were measured via a Hewlett-Packard Model […] integrator. […] Therefore, in those cases where the N-terminal serine was removed, the total amount of biologically active material remaining at the end of the incubation was taken as the % starting material remaining plus % des […] -AP-I or des […] -AP-III (as appropriate), as calculated from the peak areas of the individual peptides on HPLC.

physchem = assay type: biochemical, rabbit; conditions: pH 7.5, Peak area as % Initial AP: AP
Protocol: as §1

[2] = Plasma AP-III levels (radioimmunoassay) in rats, second test: varied AP-III infusion rate, constant thiorphan dose; assay type: in vivo, rat; conditions: male, Sprague-Dawley, rat, in vivo, iv
Protocol: (§2) Plasma levels of atriopeptin III (AP-III) were tested in rats in which the AP-III was infused intravenously both with and without contemporaneous administration of thiorphan.
(§3) Male Sprague-Dawley rats, 240-310 g, were used for all tests. The rats were housed in the test facilities for at least 6 days before they were used.
(§4) Cannulas were made of PE-10 (polyethylene) tubing inserted and glued into a piece of PE-50 tubing. Rats were anesthetized with pentobarbital (50 mg/kg i.p.) and had cannulas inserted into the left femoral vein and artery. Both were inserted four cm into the vessels and tied securely. They were then tunnelled under the skin and brought out between the rat's shoulder blades and then cut so that only 1-2 cm was externalized. Cannulas were glued in place using Superglue and filled with saline containing 100 units heparin/ml. Rats were allowed to wake up and then housed individually with food and water ad libitum.
(§5) Two days after surgery, the rats were weighed and put into restraining cages that allowed limited movement. […] Blood was collected from the femoral artery and replaced with saline containing 10 units heparin/ml. In most tests, 0.3 ml blood was taken, except that when basal AP-III levels were measured 0.4 ml blood was withdrawn. Blood was immediately centrifuged in a microcentrifuge for one minute and plasma was frozen in plastic tubes placed on dry ice. Samples were kept in a -80° C. freezer until they were analyzed.
(§6) Thiorphan was dissolved in a minimal amount of 0.1 N NaOH to produce the sodium salt. The solution was immediately neutralized using 0.5 N HCl and diluted to a final concentration with 0.9% saline.
In the second test, the level of thiorphan was kept constant at 3 mg/kg and the rate of AP-III infusion was varied. AP-III was infused into the femoral vein for a total of 60 minutes at a rate of 150,450 and 900 ng/kg/min; another group of rats received only an infusion of dextrose/saline to determine if thiorphan affected the basal levels of AP-III. Blood was taken at 15 and 30 minutes after the start of the AP-III infusion to check for a steady state AP-III plasma concentration. After the 30 min sample, thiorphan (3 mg/kg) was injected arterially and additional blood samples were taken 15 and 30 min later (45 and 60 minutes after the start of the AP-III infusion).
(§7) Plasma AP-III levels were analyzed by radioimmunoassay using a second antibody to separate free and bound AP-III. The label was ^125 I-AP-III that was purified by HPLC after iodination. Conditions were set so that 35-40% of the total counts were precipitated. The incubation medium contained sodium phosphate, pH 7.4, 0.25% bovine serum albumin (BSA), 0.5% sodium azide and 3% PEG-8000 (polyethylene glycol). The primary antibody was from a guinea pig immunized against AP-III. The incubations were done overnight at 6° C. The next day, 2 ml of 0.125% BSA was added to each tube and then they were centrifuged for 45 min at 3000 rpm. They were decanted and the radioactivity was counted in a Micromedic gamma counter. The standard curve contained 10 to 600 pg AP-III/tube. Only the linear portion of the curve was used for quantification. Plasma samples were diluted so that the AP-III concentrations were in the range of the standard curve.

[3] = Plasma AP-III levels (radioimmunoassay) in rats, first test: constant AP-III infusion, varied thiorphan dose; assay type: in vivo, rat; conditions: male, Sprague-Dawley, rat, in vivo, iv
Protocol: as §2, §3, §4, §5, §6
After taking the second sample, thiorphan was given as a bolus injection into the femoral artery and the line was flushed with 0.2 ml saline. The doses of thiorphan were 1,3,10 and 30 mg/kg; one set of rats received only a saline bolus as a control. Blood was taken 10,20,30 and 60 minutes after the injection of thiorphan. AP-III was infused during the entire experiment for a total of 90 minutes.
as §7

[4] = rabbit, kidney or brush border membranes
[5] = (c) 40 μM AP-III, 20 μg RBBM, 100 nM inhibitor, 60 min, 25° C.

SMILES: CC[C@H](C)[C@@H]1NC(=O)[C@H](CCCN=C(N)N)NC(=O)[C@H](CC(=O)O)NC(=O)[C@H]([C@@H](C)CC)NC(=O)[C@H](CCCN=C(N)N)NC(=O)CNC(=O)CNC(=O)[C@H](Cc2ccccc2)NC(=O)[C@@H](NC(=O)[C@H](CO)NC(=O)[C@@H](N)CO)CSSC[C@@H](C(=O)N[C@@H](CC(N)=O)C(=O)N[C@@H](CO)C(=O)O)NC(=O)CNC(=O)[C@H](CC(C)C)NC(=O)CNC(=O)[C@H](CO)NC(=O)[C@H](CCC(N)=O)NC(=O)[C@H](C)NC(=O)CNC1=O [AP-I] (H-SSCFGGRIDRIGAQSGLGCNS-OH; disulfide 3-19)
Degradation of atrial peptide by proteolytic activity of renal brush border membranes [1]: degraded
remaining at 1 h, 40 μM (physchem; buffer or solvent): 100%

Degradation of atrial peptide by proteolytic activity of renal brush border membranes [1]: degraded
remaining at 1 h, 40 μM (physchem; buffer or solvent): 100%
remaining at 1 h, 40 μM (physchem; [4]): 0%
SMILES: CC[C@H](C)[C@@H]1NC(=O)[C@H](CCCNC(=N)N)NC(=O)[C@H](CC(=O)O)NC(=O)[C@H](CCSC)NC(=O)[C@H](CCCNC(=N)N)NC(=O)CNC(=O)CNC(=O)[C@H](Cc2ccccc2)NC(=O)[C@@H](NC(=O)[C@H](CO)NC(=O)[C@H](CO)NC(=O)[C@H](CCCNC(=N)N)NC(=O)[C@H](CCCNC(=N)N)NC(=O)[C@H](CC(C)C)NC(=O)[C@@H](N)CO)CSSC[C@@H](C(=O)N[C@@H](CC(N)=O)C(=O)N[C@@H](CO)C(=O)N[C@@H](Cc2ccccc2)C(=O)N[C@@H](CCCNC(=N)N)C(=O)N[C@@H](Cc2ccc(O)cc2)C(=O)O)NC(=O)CNC(=O)[C@H](CC(C)C)NC(=O)CNC(=O)[C@H](CO)NC(=O)[C@H](CCC(N)=O)NC(=O)[C@H](C)NC(=O)CNC1=O [SLRR(Met^8)AP-III]

SMILES: C[C@H](NC(=O)[C@@H](CC(=O)NO)Cc1ccccc1)C(=O)O [(R,S) kelatorphan]
Peak area as % Initial AP: AP [1, 5]: 16.5%
Peak area as % Initial AP: AP + des Ser^1 -AP [1, 5]: 31.4%
Peak area as % Initial AP: des Ser^1 -AP [1, 5]: 14.9%
Effect of inhibitor on atrial peptide bioactivity during incubation with renal brush border membranes [1]: inhibit the loss of atrial peptide bioactivity

SMILES: C[C@H](NC(=O)[C@@H](CC(=O)NO)Cc1ccccc1)C(=O)O [kelatorphan, [(R)-3-(N-hydroxy)carboxamido-2-benzylpropanoyl]-L-alanine]
Effect of inhibitor on atrial peptide bioactivity during incubation with renal brush border membranes [1]: substantially prolonged or enhanced

SMILES: C[C@H](NC(=O)[C@H](CC(=O)NO)Cc1ccccc1)C(=O)O [(S,S) kelatorphan]
Peak area as % Initial AP: AP [1, 5]: 17.2%
Peak area as % Initial AP: AP + des Ser^1 -AP [1, 5]: 49.3%
Peak area as % Initial AP: des Ser^1 -AP [1, 5]: 32.1%
Effect of inhibitor on atrial peptide bioactivity during incubation with renal brush border membranes [1]: inhibit the loss of atrial peptide bioactivity

SMILES: CC[C@H](C)[C@@H]1NC(=O)[C@H](CCCN=C(N)N)NC(=O)[C@H](CC(=O)O)NC(=O)[C@H]([C@@H](C)CC)NC(=O)[C@H](CCCN=C(N)N)NC(=O)CNC(=O)CNC(=O)[C@H](Cc2ccccc2)NC(=O)[C@@H](NC(=O)[C@H](CO)NC(=O)[C@@H](N)CO)CSSC[C@@H](C(=O)N[C@@H](CC(N)=O)C(=O)N[C@@H](CO)C(=O)N[C@@H](Cc2ccccc2)C(=O)N[C@@H](CCCN=C(N)N)C(=O)N[C@@H](Cc2ccc(O)cc2)C(=O)O)NC(=O)CNC(=O)[C@H](CC(C)C)NC(=O)CNC(=O)[C@H](CO)NC(=O)[C@H](CCC(N)=O)NC(=O)[C@H](C)NC(=O)CNC1=O [AP-III] (H-SSCFGGRIDRIGAQSGLGCNSFRY-OH; disulfide 3-19)
level at 0.25 h ([2]; 150 ng/kg/min): 0.9 ± 0.2 ng/mL
level at 0.5 h ([2]; 150 ng/kg/min): 1 ± 0.6 ng/mL
level at 0.25 h ([2]; 450 ng/kg/min): 4.2 ± 1 ng/mL
level at 0.5 h ([2]; 450 ng/kg/min): 4.5 ± 1.2 ng/mL
level at 0.25 h ([2]; 900 ng/kg/min): 11.2 ± 3.5 ng/mL
level at 0.5 h ([2]; 900 ng/kg/min): 13.6 ± 1.8 ng/mL
Peak area as % Initial AP: AP ([1]; rabbit, kidney or brush border membranes, 1 h, 40 μM, pH 7.5): 2.1%
remaining at 1 h, 40 μM (physchem; buffer or solvent): 100%
remaining at 1 h, 40 μM (physchem; [4]): 3.3%
Plasma AP-III concentration, stable level during infusion ([3]; 833 ng/kg/min): 9 to 11 ng/mL
Plasma AP-III levels, constant level in control rats ([3]; 833 ng/kg/min): 11 to 12 ng/mL
level at 20 min ([3]; 833 ng/kg/min): 9.6 ± 1.6 ng/mL
level at 0.5 h ([3]; 833 ng/kg/min): 10.8 ± 1.1 ng/mL
level at 40 min ([3]; 833 ng/kg/min): 11.2 ± 1.3 ng/mL
level at 50 min ([3]; 833 ng/kg/min): 11.3 ± 1.1 ng/mL
level at 1 h ([3]; 833 ng/kg/min): 11.7 ± 0.7 ng/mL
level at 1.5 h ([3]; 833 ng/kg/min): 10.6 ± 1.4 ng/mL
level at 20 min ([3]; 1 mg/kg): 9.2 ± 2.4 ng/mL
level at 0.5 h ([3]; 1 mg/kg): 9.7 ± 1 ng/mL
level at 20 min ([3]; 3 mg/kg): 10.1 ± 1.6 ng/mL
level at 0.5 h ([3]; 3 mg/kg): 11 ± 1.1 ng/mL
level at 20 min ([3]; 10 mg/kg): 9.7 ± 2.4 ng/mL
level at 0.5 h ([3]; 10 mg/kg): 10.6 ± 2.9 ng/mL
level at 20 min ([3]; 30 mg/kg): 9.2 ± 1.1 ng/mL
level at 0.5 h ([3]; 30 mg/kg): 8.8 ± 1 ng/mL
